Experimental data: patent US20180344725A1, “QUINOLONE CHALCONE COMPOUNDS AND USES THEREOF” (priority 2015, published 2018)

Tests used:
Format in all cases: cell-based
[1] = tested on: KB-C-1; assay: SRB-based cytotoxicity assay; conditions: Homo sapiens, KBC-1; KB-C-1, multidrug naïve
Protocol: 1845B5 and MCF-10A non-cancer breast cell lines were cultured in DME/F12 medium supplemented with 10% fetal bovine serum, antibiotics and growth factors. […] The human small cell lung carcinoma H69 cell line and its multidrug-resistant MRP1-overexpressing isogenic H69AR cell line were purchased from ATCC. […] H69 cells grow as large multi-cell aggregates, making it difficult to accurately count cell numbers. […] The IL-6 dependent bortezomib-resistant ANBL6-BR cell line was further supplemented with 1 ng/ml of IL-6. The MCF10AT1 and MCF10CA1a cell lines are isogenic to the MCF10A cell line, and obtained from Dr. Valerie Weaver at the Center for Bioengineering and Tissue Regeneration, UCSF, CA, USA. […] The drug-resistant cells were cultured in the absence of drug for at least one passage before carrying out experiments. All cells were maintained in a humidified incubator at 37° C. […] Cell line authentication was performed using short tandem repeat (STR) profiling. […] Some wells were treated with 100 μl of 10% trichloroacetic acid (TCA) as a negative control and sham (medium with dimethyl sulfoxide; DMSO) treated cells were used as a positive control. […] TCA was removed and cells were washed with cold tap water, and plate was air-dried, followed by addition of 50 μl of 0.4% SRB staining solution to each well. After 30 minutes incubation, SRB staining solution was removed. Cells were washed with 1% acetic acid solution, and then washed with tap water to remove unbound staining solution, followed by air-drying. 200 μl of 10 mM (pH10.5) trizma base buffer was added to each well to solubilise macromolecules. […] Cell growth (inhibition) was calculated by the following formula: % cells proliferation=[(AT-CT)/(ST-CT)]×100 wherein AT=absorbance of treated cells, CT=absorbance of negative control cells, and ST=absorbance of sham treated cells. […] CI values were determined from four independent experiments.

[2] = tested on: HeLa cells; assay: Western blotting (PARP cleavage, apoptosis); conditions: by 24-hour post-treatment
Protocol: Exponentially growing cells were collected by centrifugation at 1,100 rpm (Allegra™ X-12 centrifuge, Beckman Coulter) at scheduled time points post-treatment. Cells were washed three times with PBS by centrifugation under the same conditions, followed by cell lysis for 10-15 minutes on ice in 100 μl Lysis buffer (150 mM NaCl, 5 mM EDTA, 1% triton X-100, 10 mM tris pH 7.4, 1 mM PMSF, 5 mM EDTA and 5 mM protease inhibitor). Cell extracts were centrifuged at 11,000 rpm (Allegra™ X-12 centrifuge, Beckman Coulter) for 10 minutes at 4° C. Supernatant was collected and the protein concentration was measured using a BCA assay kit according to the supplier's specifications (Thermo Fisher Scientific, Waltham, Mass.). Cell lysates were then diluted with 2× Iaemmli sample buffer and boiled for 5 minutes at 95-100° C. 30-40 μg protein was loaded on 8% or 10% polyacrylamide gel and resolved by electrophoresis. Proteins were then electronically transferred to a PVDF membrane for 75 minutes at 24 volts, followed by “blocking” with 5% skim milk for 1 hour. Proteins were incubated with primary antibody overnight at 4° C. in 0.1% TBST buffer containing 5% skim milk. The membrane was washed three times with 0.1% TBST buffer and incubated for 1 hour with secondary antibody in TBST buffer containing 5% skim milk. […]

[3] = tested on: RPMI-8226-BR; assay: Antiproliferation, bortezomib-resistant cells; conditions: RPMI-8226-BR (bortezomib-resistant)
Protocol: For (anti)proliferation assays, 4,000-5,000 cells/well of the 96-well clustered dish were incubated for 16 hours, as described previously (Hu et al., 2008; Skehan et al., 1990). After 16 hours, culture medium was replaced with fresh medium containing different dilutions of test compounds dissolved in DMSO. Some wells were treated with 100 μl of 10% trichloroacetic acid (TCA) as a negative control and sham (medium with dimethyl sulfoxide; DMSO) treated cells were used as a positive control. After 72 hours post-incubation, medium was removed and cells were fixed with 10% TCA at 4° C. for 1 hour. […] SRB stained macromolecules were determined at a 540 nm wavelength using an automated plate reader (Synergy H4 Hybrid Multi-Mode Microplate Reader, BioTek, Winooski, Vt.). Cell growth (inhibition) was calculated by the following formula: […]
wherein AT=absorbance of treated cells, CT=absorbance of negative control cells, and ST=absorbance of sham treated cells. IC50 values were calculated from sigmoidal dose-response curves generated by two independent biological replicates, with quadruplicate in each set by using Graph Pad Prism v.5.04 software. […] The combinational index (CI) was calculated as described previously (Chou 2006). […] CI values were determined from four independent experiments.

SMILES: COc1ccccc1C(=O)/C=C/c1cc2ccccc2[nH]c1=O [CTR-17, (E)-3-(3-(2-Methoxyphenyl)-3-oxoprop-1-enyl)quinolin-2(1H)-one]
- IC50 [1]: 380 ± 70 nM

SMILES: COc1ccccc1C(=O)/C=C/c1cc2cccc(OC)c2[nH]c1=O [CTR-21, (E)-8-methoxy-3-(3-(2-methoxyphenyl)-3-oxoprop-1-enyl) quinolin-2(1H)-one]
- concentration at which many cells underwent apoptosis (cleavage of PARP) [2]: ≥ 15 nM

SMILES: COc1ccc2[nH]c(=O)c(/C=C/C(=O)c3ccccc3OC)cc2c1 [CTR-20, (E)-6-Methoxy-3-(3-(2-methoxyphenyl)-3-oxoprop-1-enyl) quinolin-2(1H)-one]
- IC50 [1]: 100 ± 20 nM
- IC50 [3]: 280 ± 30 nM

SMILES: CCOc1ccccc1C(=O)/C=C/c1cc2ccccc2[nH]c1=O [CTR-32, (E)-3-(3-(2-ethoxyphenyl)-3-oxoprop-1-enyl)quinolin-2(1H)-one]
- concentration at which many cells underwent apoptosis (cleavage of PARP) [2]: ≥ 30 nM
